Source: patent US4261883A (priority 1979, dated 1981)
Read-outs that look alike come from different tables or passages of the source.

Columns and labels:
[1] = tested on: guinea pig ileum; assay: guinea pig ileum test (inhibition of voltage induced contractions); format: cell-based; settings: read-out: I.D.50 in the guinea pig ileum test
[2] = tested on: opioid receptors in caudate nuclei homogenate S4e; assay: affinity labeling of opiate receptor sites by irradiation of azido compounds, caudate nuclei homogenate S4e; format: binding, bovine; settings: normorphine hydrochloride added before the azide and irradiation

| Molecule | IC50 [1] [nM] | IC50 ([1]; Cavia porcellus) [nM] | effect on the deactivation of the opioid receptors by the azide compounds [2] |
| --- | --- | --- | --- |
| (D-ala^ 2)met-enkephalinamide | 12 | – | – |
| Oc1ccc2c3c1O[C@H]1[C@@H](O)C=C[C@H]4[C@@H](C2)NCC[C@@]341 [normorphine] | – | 120 | inhibit the deactivation of the opioid receptors |
